Entries after “also recorded” stand apart in the source; their conditions may differ. Like-named read-outs stand apart in the source and are kept apart here.

The test system of test [1] is purified sheep brain GS. To be noted: Rueppel et al., 1972; cited from earlier work.
For test [2], the system named is purified sheep brain GS. Kind of test: Purified sheep brain GS activity (Meister's method, gamma-glutamylhydroxamate formation). Format: biochemical. As to conditions: for effect on GS subunit (monomer) activity: in presence of 2β-ME (DTT for tianeptine).
The test system of another test is pathogenic mycobacteria. As to conditions: cited from earlier work.
Test [3] relates to GS. To be noted: rat, in vivo.
Test [4] concerns Wistar rats. Kind of test: Forced swimming test in corticosterone-administered rats. Format: in vivo. As to conditions: day 19, corticosterone 35 mg/kg s.c.; versus PCB and Control.
Test [5] has as its target GS (Rattus norvegicus, UniProt P09606).
The subject of a further test is M. tuberculosis. To be noted: MS with isoniazid (INH); cited from earlier work.
In test [6] the test system is GS. To be noted: literature (Meister 1985; Eisenberg et al., 2000); cited from earlier work.
The target in test [7] is T1, brain GS (Mus musculus, UniProt P15105). As to conditions: i.p. 7 days.
For test [8], the target named is T1, brain GS. As to conditions: 24 h after single i.p.
Test [9] can be described thus: Adrenal weight in corticosterone-administered rats. Format: in vivo, Wistar rats. As to conditions: 21 days, versus PCB.
Another test has as its target bacterial GS (Mycobacterium tuberculosis, UniProt P9WN39). To be noted: cited from earlier work.
The test system of a further test is CA3 pyramidal neurons. Kind of test: Surface of CA3 pyramidal neurons (Golgi) in corticosterone-administered rats. It is filed as in vivo, Wistar rats. As to conditions: 21 days.
The test system of test [10] is glucocorticoid receptor (GR). Kind of test: Brain glucocorticoid receptor expression by ELISA in corticosterone-administered rats. It is filed as in vivo, Wistar rats. Background: In an ELISA, binding on a coated surface is turned into a signal by an enzyme label.
The test system of another test is rat lung GS protein. To be noted: cited from earlier work.
The subject of test [11] is Wistar rats. Kind of test: Open field task in corticosterone-administered rats. Format: in vivo.
Where [12] appears, read: 21 days, versus PCB and Control.

T1 sequence (P15105 2-373 limits assumed): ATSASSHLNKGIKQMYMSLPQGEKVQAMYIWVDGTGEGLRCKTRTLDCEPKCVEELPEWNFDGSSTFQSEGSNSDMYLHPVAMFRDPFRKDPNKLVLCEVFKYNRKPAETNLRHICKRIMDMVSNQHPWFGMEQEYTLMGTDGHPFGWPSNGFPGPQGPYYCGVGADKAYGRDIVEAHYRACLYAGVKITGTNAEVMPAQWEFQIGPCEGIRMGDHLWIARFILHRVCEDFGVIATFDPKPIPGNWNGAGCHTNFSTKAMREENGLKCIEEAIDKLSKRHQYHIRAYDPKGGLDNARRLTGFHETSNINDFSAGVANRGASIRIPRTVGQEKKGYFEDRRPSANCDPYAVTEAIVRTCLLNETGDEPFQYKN
GS (Rattus norvegicus, UniProt P09606), sequence (P09606 2-373 limits assumed): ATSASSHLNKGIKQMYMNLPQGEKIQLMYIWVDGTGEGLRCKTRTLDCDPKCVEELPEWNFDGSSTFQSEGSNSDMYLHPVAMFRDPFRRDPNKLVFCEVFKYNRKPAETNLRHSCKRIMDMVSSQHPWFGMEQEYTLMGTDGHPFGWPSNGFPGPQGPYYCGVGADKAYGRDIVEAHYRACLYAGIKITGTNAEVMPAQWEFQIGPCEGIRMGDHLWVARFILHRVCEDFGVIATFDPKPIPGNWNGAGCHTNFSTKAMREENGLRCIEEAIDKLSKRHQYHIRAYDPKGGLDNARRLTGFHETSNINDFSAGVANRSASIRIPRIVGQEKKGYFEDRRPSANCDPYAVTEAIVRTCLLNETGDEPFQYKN
bacterial GS, sequence (P9WN39 whole entry): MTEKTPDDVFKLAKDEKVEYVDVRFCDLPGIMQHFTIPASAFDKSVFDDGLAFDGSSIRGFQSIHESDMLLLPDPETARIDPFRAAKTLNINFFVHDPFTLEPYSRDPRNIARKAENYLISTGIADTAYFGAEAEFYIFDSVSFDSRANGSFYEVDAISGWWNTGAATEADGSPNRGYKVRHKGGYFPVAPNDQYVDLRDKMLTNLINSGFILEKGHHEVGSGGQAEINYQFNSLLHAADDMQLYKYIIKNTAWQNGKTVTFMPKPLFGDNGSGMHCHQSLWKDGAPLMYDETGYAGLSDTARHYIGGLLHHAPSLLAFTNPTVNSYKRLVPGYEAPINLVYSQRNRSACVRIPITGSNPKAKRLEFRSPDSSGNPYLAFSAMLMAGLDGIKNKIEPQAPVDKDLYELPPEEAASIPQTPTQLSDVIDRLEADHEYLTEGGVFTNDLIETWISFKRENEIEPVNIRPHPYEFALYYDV

On to `CC(C)NNC(=O)c1ccncc1` [iproniazid, Iproniazid], for which, in the test with purified sheep brain GS [1], the type of competition result is “competes with hydroxylamine on the NH4 site”. Besides, in the test on purified sheep brain GS [2], the “tested on GS activity: ligand or not” value is listed as “GS ligands” and the “effect on GS subunit (monomer) activity” value is reported as “inhibit GS activity at “high” concentrations”.
For the compound `CS(=N)(=O)CC[C@H](N)C(=O)O` (stereo partly shown) [MS, 2-amino-4-(S-methylsulfonimidosyl)butanoic acid], in the test on pathogenic mycobacteria, the “effect on mycobacterium growth” value is “block the growth”. The “brain GS expression” value in the test with GS [3] is “higher”. Besides, the “immobility in the forced swimming test” value in the test on Wistar rats [4] was “comparable or lower”. In addition, the “lung GS activity” value on GS [5] (21 days, most rats, versus PCB) was “decrease in lung GS activity”. The “brain GS activity” value at GS [5] (setting [12]) is “dose-dependent decrease”; on GS [5] (MS at the and 45 mg/kg doses) it was “lowest GS activities”. Also, the “liver GS activity” value at GS [5] (setting [12]) is listed as “clear decrease”. Besides, in the test with M. tuberculosis, the “reduction of CFU in guinea pig organs below the level attained with INH alone” value is listed as around 1.5 log units. In addition, the “nature of the binding to GS” value with GS [6] is “non-selective, irreversible GS ligand; also recorded: bind GS irreversibly”. In addition, the “whole brain GS activity” value at brain GS [7] (MS 0.5, 15, 45 mg/kg) is recorded as “decreased GS activity proportionally the dose”; at brain GS [8] (0.078-20 mg/kg) it was “increase GS activity”. The “dose relation of effects on GS activity and GS expression” value on brain GS [7] and on brain GS [8] was “dose-dependent” throughout. At brain GS [8], the “dose with the highest GS activity” value turned out to be 0.312 mg/kg. Further, the type of competition entry in the test with purified sheep brain GS [2] is listed as “competitive with L-glutamine”. Besides, the “effect on GS subunit (monomer) activity” value with purified sheep brain GS [2] is “inhibit GS activity at “high” concentrations”. The adrenal weight entry in [9] is given as “higher”. Further, the “greater sensitivity to MS of bacterial GS than of mammalian GS” value on bacterial GS was 100 fold. Further, the “dose with the best protective effects on CA3 pyramidal neurons” value in the test on CA3 pyramidal neurons stood at 15 mg/kg. Moreover, the “brain GR expression” value in test [10] (GF 0.1 and 3 mg/kg, MS 0.5, 15 and 45 mg/kg, tianeptine 0.5 mg/kg, versus PCB) was “higher”. The “dose relation of the increase in GR expression” value in test [10] (rat, in vivo) is “proportional to the dose”. For the same compound, the “augmentation of rat lung GS protein levels” value in the test with rat lung GS protein (MS 100 mg/kg) is reported as 4 fold; with rat lung GS protein (combination MS 100 mg/kg and dexamethasone 0.5 mg/kg), 12 fold. Besides, the “dose relation of the increase in resting time” value in the test on Wistar rats [11] (day 15) is listed as “proportional to the dose”. Also, the “resting time in the open field task” value with Wistar rats [11] (day 15, corticosterone 35 mg/kg s.c., versus PCB and Control) was “higher”.
